The values below come from patent US20050106153A1, “Combined physical and immunotherapy for cancer” (WOUND HEALING OF OKLAHOMA, priority 1995, published 2005).

The assay concerns DMBA-4 metastatic transplantable rat mammary tumor. In words: Survival of rats with tumor transplant after laser/sensitizer assisted immunotherapy. In kind it is in vivo, Wistar Furth female rats. The text has this: A diode laser was used in this study. The Industrial Semiconductor Laser ISL50F (McDonnell Douglas Aerospace, St. Louis, Mo.), employs a diode array that is electrically powered by a diode driver. The laser emits radiation at wavelength of 808±10 nm, either in pulsed or in continuous mode. Its maximum near infrared power in the available configuration output is 35 watts. The laser is operated with standard electric power (110/120 VAC). A microprocessor monitors and adjusts the laser operating parameters. Laser energy can be delivered through optical fibers of various sizes. A red laser diode emits 670 nm light at 0.9 mW as the aiming beam. The continuous wave mode was employed in this experiment.
In the experiment, different power and duration of laser irradiation, ranging from 3 minutes at 5 watts to 5 minutes at 15 watts, were used. The output power was measured before, during and after the procedure using a Joule/Watt meter (Ophir Optics, Israel). Two types of fiber optics were used: 600 μm and 1200 μm in diameter.
Wistar Furth female rats, age 6 to 7 weeks and weighing 100 to 125 grams, were chosen for the study. The model is a metastatic transplantable rat mammary tumor. The tumor strain was the DMBA-4. Tumor cells (about 25,000 cells) were transplanted to the rats by injection into the superficial inguinal area between the skin and the muscle layer. Certain selected rats were injected with tumor cells in both left and right inguinal areas for simultaneous tumor growth.
The rats were fed a special food, a high saturated fat diet, to facilitate the growth of the tumor. The tumor usually grew to about 1 to 4 cm^3 within 10 to 14 days of tumor transplantation. In most cases the rat tumors were treated before they grew beyond 5 cm^3.
Before laser treatment, anesthesia was applied (100 μl xylazine and ketamine solution IM) and the hair overlaying the tumor was clipped and shaved. After the treatment, the rats were maintained in separate cages and still fed with the same high fat diet. […]

On to `CC1(C)C(/C=C/C=C/C=C/C=C2\N(CCCCS(=O)(=O)O)c3ccc4ccccc4c3C2(C)C)=[N+](CCCCS(=O)(=O)[O-])c2ccc3ccccc3c21` [ICG-H2O, indocyanine green], for which, for the setting “second group, treated by laser with ICG-H2O solution, vs control”, the “effect on survival rate” value is reported as “did not show any improvement on the survival rate”. Besides, the “Survival Days” value (whole group, laser treated, data up to Jan. 16, 1995) turned out to be 29.0 ± 3.5 days. For the same compound, the “average survival time after the tumor transplant” value (whole group, laser treated, up to Apr. 1, 1995) is recorded as 29.0 days.
